Laboratory results: PMC7894522, “Structure Based Design of Bicyclic Peptide Inhibitors of RbAp48” (Angewandte Chemie (International Ed. in English), 2020)
Starred links: 1 amine or outer side, 2 acyl side, 3 side chain; linkers in the order of their positions; H or OH if unused. Positions of bridges follow the written chain, without caps; N, C: chain ends. Residues, ends and D or L forms follow the SMILES beside them. TBMB = c1c(C[*:1])cc(C[*:3])cc1C[*:2]

What was measured:
U2OS cells = assay: Morphological cell painting assay; format: cell-based; details: U2OS cells, 20 h, 579 parameters, fraction of significantly changed parameters vs DMSO; 10, 3 or 1 µM
From the text: Encouraged by the promising results from the pulldown experiment, and in order to get insight into bioactivity and possible mode of action, we analyzed peptide 33 in a morphological cell painting assay. The cell painting assay is a target agnostic assay which determines a cells morphological profile after treatment with a compound of interest and compares it to the profiles of a set of reference compounds. ^[22] By identifying reference compounds with a similar profile a hypothesis of the compounds mode of action can be generated based on their annotated targets. ^[23] U2OS cells were treated with our compound and 579 parameters were analyzed. […] We therefore synthesized a variant modified with an N‐terminal TAT sequence to enhance its permeability (compound 49, see Table 1 and Supplemental Figure 4). ^[24] […] Applying compound 49 to the cell painting assay led to an induction of 5.9 % and the corresponding profile was compared to the set of 3000 reference compounds. […] To validate this hypothesis, we exposed U2OS cells to compound 49 and evaluated the levels of p53 by Western blot. […] The exact mechanism by which the compounds elevate levels of p53 requires further investigation. However, it has previously been shown that the NuRD complex, of which RbAp48 is a core component, is able to deacetylate p53 and thereby modulate its stability. ^[26] The effect is mediated by the MTA family of proteins from which the compounds described here are derived. […]
The described assay follows closely the method described by Bray et al. Initially, 5 µl U2OS medium were added to each well of a 384 -well plate (PerkinElmer CellCarrier -384 Ultra). Subsequently, U2OS cell were seeded with a density of 1600 cells per well in 20 µl medium. The plate was incubated for 10 min at the ambient temperatu re, followed by an a dditional 4 h incubation (37 °C, 5 % CO2). Compound treatment was performed with the Echo 520 acoustic dispenser (Labcyte) at final concentrations of 10 µM, 3 µM or 1 µM. Incubation with compound was performed for 20 h (37 °C, 5 % CO2). Subsequently, mitoc hondria were stained with Mito Tracker Deep Red (Thermo Fisher Scientific, Cat. No. M22426). The Mito Tracker Deep Red stock solution (1 mM) was diluted to a final concentration of 100 nM in prewarmed medium. The medium was removed fr om the plate leaving 1 0 µl residual volume and 25 µl of the Mito Tracker solution were added to each well. 22 The plate was incubated for 30 min in darkness (37 °C, 5 % CO2). To fix the cells 7 µl of 18.5 % formaldehyde in PBS were added, resulting in a fi nal formaldehyde conce ntration of 3.7 %. Subsequently, the plate was incubated for another 20 min in darkness (RT) and washed three times with 70 µl of PBS. (Biotek Washer Elx405). Cells were permeabilized by addition of 25 µl 0.1 % Triton X -100 to each well, followed by 15 min incubation (RT) in darkness. The cells were washed three times with PBS leaving a final volume of 10 µl. To each well 25 µl of a staining solution were added, which contains 1 % BSA, 5 µl/mL Phalloidin (Thermo Fisher Scientific, A123 81), 25 µg/ml Concanav alin A (Thermo Fisher Scientific, Cat. […]
conjugate (Thermo Fisher Scientific, Cat. No. W11262) and […] SYTO 14 solution (Thermo Fisher Scientific, Cat. No. S7576). The plate is incubated for 30 min (RT) in darkness and washed three times with 70 µl PBS. After the final washing step the PBS was not aspirated. The plates were sealed and centrifuged for 1 min at 500 rpm.
The plates were prepare d in triplicates with shifted layouts to reduce plate effects and imaged using a Micro XL High-Content Screening System (Molecular Devices) in 5 channels (DAPI: Ex350 -400/ Em410- […]
The generated images were processed with the CellProfiler package (https://cellprofiler.org/, version 3.0.0) on a computing cluster of the Max Planck Society to extract 1716 cell features (parameters) per microscope site. The data was then further aggregated as medians per well (9 sites -> 1 well), then […]

RbAp48 = RbAp48 (Homo sapiens, UniProt Q09028); assay: Isothermal titration calorimetry (direct and competitive); format: binding; design: Full length RbAp48 was cloned; His tag followed by 3C cleavage site (N, cleaved yes); made in house; host or cells: Sf9 insect cells; details: competitive ITC with weak ligand 40
Method: The weak ligand interferes with binding of the strong ligand allowing the use of higher concentrations and therefore stronger signal. The actual affinity and thermodynamic parameters can then be calculated from the measured values.[ ^20 , ^21 ] The long linear peptide 2, monocyclic peptide 8, and bicyclic peptide 33 were analysed using this method and the results are reported in Table 2 (See Figure 4 A and Supplemental Figure 13–16). […] An effect which could not clearly be observed by the FP assay as it's lower limits were reached.
Protein expression and purification
RbAp48 was expressed and purified by the Dortmund Protein Facility. Full length RbAp48 was cloned into a pOPIN vector ligating it to an N-terminal His tag followed by a 3C cleavage site. The protein was expressed from Sf9 cells for 48 h. Cells were harvested and lysed and the protein was purified by loading onto a HisTrap FF crude 5 ml column followed by on-column cleavage using Precission protease. The cleaved protein was then further purified using a HiLoad 26/60 Superdex 200 column.
Fluorescence polarization assay […]
Isothermal Titration Calorimetry
Isothermal titration calorimetry measurements w ere performed using a Microcal ITC-200 device. The buffer for all measurements consisted of 20 mM Tris, 150 mM NaCl, pH 7.5 and all measurements were performed at 25°C in duplicate except for 8. RbAp48 was dialyzed overnight using a 10 kDa MWCO Slide-A-lizer dialysis membrane and peptide samples were dissolved in the dialysis buffer. Direct measurements of 40 were perfomed by titrating the peptide ( 800 µM) into the cell containing RbAp48 (40 µM) using 2 µl injection after an initial injection of 0.5 µl. […]
by competitive ITC where the protein is premixed with a weak ligand ( 40).[1] Competitive measurements were performed by titrating 2, 8 or 33 (300 µM) into the cell containing RbAp48 (30 µM) and 40 (416 µM). Other conditions were the same as for the direct measurement described above.
Ki was calculated according using the following formula: […]

RbAp48, sequence (Q09028 whole entry): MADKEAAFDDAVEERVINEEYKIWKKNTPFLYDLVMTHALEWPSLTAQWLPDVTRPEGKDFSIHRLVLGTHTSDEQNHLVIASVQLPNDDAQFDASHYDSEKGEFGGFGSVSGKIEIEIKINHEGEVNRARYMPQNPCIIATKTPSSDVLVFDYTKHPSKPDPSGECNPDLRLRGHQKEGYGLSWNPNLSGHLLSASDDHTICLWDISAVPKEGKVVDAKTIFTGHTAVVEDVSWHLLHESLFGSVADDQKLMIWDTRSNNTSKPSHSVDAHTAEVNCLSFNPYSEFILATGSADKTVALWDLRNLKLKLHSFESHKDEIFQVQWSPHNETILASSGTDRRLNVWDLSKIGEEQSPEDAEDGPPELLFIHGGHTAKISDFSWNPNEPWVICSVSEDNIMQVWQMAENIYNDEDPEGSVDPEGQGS

Kd (RbAp48): 8.56 nM
SMILES: CC(=O)N[C@H]1CSCc2cc3cc(c2)CSC[C@@H](C(=O)N[C@@H](C)C(N)=O)NC(=O)[C@@H]2CCCN2C(=O)[C@H](CCCCN)NC(=O)[C@H](Cc2ccc(O)cc2)NC(=O)[C@@H]2CCCN2C(=O)[C@H](CCCNC(=N)N)NC(=O)[C@H](CCCNC(=N)N)NC(=O)[C@H](C)NC(=O)[C@H](CSC3)NC(=O)[C@H](CCCNC(=N)N)NC(=O)[C@H](CCCCN)NC(=O)[C@H]([C@@H](C)O)NC1=O [Peptide 33] (Ac-CTKRCARRPYKPCA-NH2; linker 1-5-13 via TBMB)
induction (U2OS cells): no induction
